We go through two substances from patent publication US20110144010A1, “Spontaneously Dispersible Preconcentrates Including a Peptide Drug in a Solid or Semisolid Carrier” (Novo Nordisk A/S, priority 2007, published 2011).

In one assay the test system is non diabetic dogs. Briefly: Reduction in blood glucose after oral administration of enteric coated capsule to non diabetic dogs. As to conditions: overnight fasted dogs, propylene glycol, Capmul MCM, Pluronic F127, PEG 3350. The format is in vivo.
The next assay deals with non-diabetic SPRD rats. Briefly: Reduction of the blood glucose level after per-oral dosage (via gavage) to non-diabetic SPRD rats. It is filed as in vivo. On the procedure: The reduction in blood glucose in non-diabetic rats was examined after:
3) Vehicle SEDDS containing 62.5% propylene glycol, 31.25% Capmul MCM C10 and 6.25% poloxamer 407 was dosed orally. SEDDS had been melted at 35° C. before dosing.
(mean±SEM, n=5-6, dosage volume=4 ml/kg).

Turning to Asp^B28 human insulin [insulin aspart], the Blood glucose levels entry in the assay on non diabetic dogs (oral enteric coated capsule: 69 mg insulin aspart, FIG. 1) was “Reduction in blood glucose levels”. Besides, in the assay with non-diabetic SPRD rats (9600 nmol/kg in SEDDS (propylene glycol, Capmul MCM C10, poloxamer 407) or 9800 nmol/kg in H2O, FIG. 3), the Blood glucose level entry is listed as “Reduction of the Blood Glucose Level”.

In the case of A14GluB25HisdesB30 human insulin, the Blood glucose levels result in the assay on non diabetic dogs (oral enteric coated capsule: 46 mg A14GluB25HisdesB30 human insulin, FIG. 2) is recorded as “Reduction in blood glucose levels”. The Blood glucose level result in the assay with non-diabetic SPRD rats (4800 nmol/kg in SEDDS (propylene glycol, Capmul MCM C10, poloxamer 407) or 4880 nmol/kg in H2O, FIG. 4) is listed as “Reduction of the Blood Glucose Level”.
